Laboratory results taken from ChEMBL document CHEMBL5291721, “A preclinical secondary pharmacology resource illuminates target-adverse drug reaction associations of marketed drugs” (Nat Commun, 2023).

Legend:
[1] = target: T1, Alpha-2A adrenergic receptor (Homo sapiens, UniProt P08913)
T1 sequence (P08913 whole entry): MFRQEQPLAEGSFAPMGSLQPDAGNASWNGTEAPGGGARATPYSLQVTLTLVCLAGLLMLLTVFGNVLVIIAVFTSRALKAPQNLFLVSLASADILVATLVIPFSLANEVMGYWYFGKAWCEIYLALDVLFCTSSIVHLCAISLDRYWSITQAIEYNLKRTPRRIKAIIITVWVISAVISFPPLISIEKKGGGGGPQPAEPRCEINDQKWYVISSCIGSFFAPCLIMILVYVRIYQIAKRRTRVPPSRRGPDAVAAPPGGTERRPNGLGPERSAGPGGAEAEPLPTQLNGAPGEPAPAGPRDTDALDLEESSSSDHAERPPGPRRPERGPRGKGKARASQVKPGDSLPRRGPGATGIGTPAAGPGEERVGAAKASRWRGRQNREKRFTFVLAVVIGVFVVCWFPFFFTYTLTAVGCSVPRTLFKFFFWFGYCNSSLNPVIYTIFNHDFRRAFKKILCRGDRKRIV

[2] = target: Vascular endothelial growth factor receptor 2 (Homo sapiens, UniProt P35968); type: functional
Thromboxane A2 receptor [3] = target: T2, Thromboxane A2 receptor (Homo sapiens, UniProt P21731); type: functional
T2 sequence (P21731 whole entry): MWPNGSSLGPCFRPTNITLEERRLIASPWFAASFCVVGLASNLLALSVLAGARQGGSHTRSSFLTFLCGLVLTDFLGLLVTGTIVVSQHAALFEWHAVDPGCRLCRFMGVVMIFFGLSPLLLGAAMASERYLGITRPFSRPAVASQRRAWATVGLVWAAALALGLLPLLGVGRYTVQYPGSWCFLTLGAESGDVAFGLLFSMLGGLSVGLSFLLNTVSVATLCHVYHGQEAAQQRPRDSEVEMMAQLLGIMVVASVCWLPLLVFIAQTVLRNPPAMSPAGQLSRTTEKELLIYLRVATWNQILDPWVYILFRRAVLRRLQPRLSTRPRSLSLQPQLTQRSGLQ

Thromboxane A2 receptor [4] = target: T2, Thromboxane A2 receptor; type: functional, cell-based
[5] = target: T3, Muscarinic acetylcholine receptor M5 (Homo sapiens, UniProt P08912)
T3 sequence (P08912 whole entry): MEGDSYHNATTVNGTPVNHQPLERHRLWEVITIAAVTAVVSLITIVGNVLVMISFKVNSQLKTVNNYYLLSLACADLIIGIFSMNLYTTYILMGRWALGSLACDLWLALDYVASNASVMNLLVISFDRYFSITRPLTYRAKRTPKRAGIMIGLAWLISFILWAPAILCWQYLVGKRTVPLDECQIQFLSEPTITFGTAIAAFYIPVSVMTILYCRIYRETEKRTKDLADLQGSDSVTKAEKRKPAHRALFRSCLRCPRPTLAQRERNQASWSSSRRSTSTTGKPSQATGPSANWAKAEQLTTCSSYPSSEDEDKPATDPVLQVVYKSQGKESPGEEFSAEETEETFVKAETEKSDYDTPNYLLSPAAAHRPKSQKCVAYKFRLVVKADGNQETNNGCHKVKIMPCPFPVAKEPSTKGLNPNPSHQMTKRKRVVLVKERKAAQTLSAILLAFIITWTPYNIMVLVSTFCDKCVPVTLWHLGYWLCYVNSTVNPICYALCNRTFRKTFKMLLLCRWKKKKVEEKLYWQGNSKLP

[6] = target: Rod cGMP-specific 3',5'-cyclic phosphodiesterase subunit alpha (Homo sapiens, UniProt P16499); type: functional
[7] = target: Gamma-aminobutyric acid type B receptor subunit 1 (Homo sapiens, UniProt Q9UBS5)
Chain of Gamma-aminobutyric acid type B receptor subunit 1 (Q9UBS5 whole entry): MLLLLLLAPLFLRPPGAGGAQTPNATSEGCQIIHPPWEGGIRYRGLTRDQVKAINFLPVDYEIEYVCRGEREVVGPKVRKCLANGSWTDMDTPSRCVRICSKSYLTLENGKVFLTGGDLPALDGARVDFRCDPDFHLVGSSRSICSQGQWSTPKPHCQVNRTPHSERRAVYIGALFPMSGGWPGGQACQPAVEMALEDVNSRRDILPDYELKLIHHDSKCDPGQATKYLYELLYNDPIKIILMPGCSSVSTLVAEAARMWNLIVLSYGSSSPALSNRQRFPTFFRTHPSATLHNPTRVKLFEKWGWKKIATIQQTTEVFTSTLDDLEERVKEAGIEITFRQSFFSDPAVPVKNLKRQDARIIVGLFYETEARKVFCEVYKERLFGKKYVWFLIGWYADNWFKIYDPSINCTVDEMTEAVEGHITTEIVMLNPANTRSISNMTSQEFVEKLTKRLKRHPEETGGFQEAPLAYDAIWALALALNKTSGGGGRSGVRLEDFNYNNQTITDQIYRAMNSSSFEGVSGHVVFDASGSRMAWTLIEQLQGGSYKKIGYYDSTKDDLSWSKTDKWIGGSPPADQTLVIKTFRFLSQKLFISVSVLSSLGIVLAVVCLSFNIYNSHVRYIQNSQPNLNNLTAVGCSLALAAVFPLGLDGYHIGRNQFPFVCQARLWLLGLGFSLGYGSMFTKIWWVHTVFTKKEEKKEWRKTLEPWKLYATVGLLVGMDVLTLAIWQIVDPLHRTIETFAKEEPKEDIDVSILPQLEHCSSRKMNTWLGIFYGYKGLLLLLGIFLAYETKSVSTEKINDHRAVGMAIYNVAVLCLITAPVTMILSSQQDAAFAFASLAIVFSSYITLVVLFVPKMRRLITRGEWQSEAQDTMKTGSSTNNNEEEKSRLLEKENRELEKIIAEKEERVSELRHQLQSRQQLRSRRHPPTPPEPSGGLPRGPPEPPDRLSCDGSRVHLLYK

[8] = target: 5-hydroxytryptamine receptor 5A (Homo sapiens, UniProt P47898)
Chain of 5-hydroxytryptamine receptor 5A (P47898 whole entry): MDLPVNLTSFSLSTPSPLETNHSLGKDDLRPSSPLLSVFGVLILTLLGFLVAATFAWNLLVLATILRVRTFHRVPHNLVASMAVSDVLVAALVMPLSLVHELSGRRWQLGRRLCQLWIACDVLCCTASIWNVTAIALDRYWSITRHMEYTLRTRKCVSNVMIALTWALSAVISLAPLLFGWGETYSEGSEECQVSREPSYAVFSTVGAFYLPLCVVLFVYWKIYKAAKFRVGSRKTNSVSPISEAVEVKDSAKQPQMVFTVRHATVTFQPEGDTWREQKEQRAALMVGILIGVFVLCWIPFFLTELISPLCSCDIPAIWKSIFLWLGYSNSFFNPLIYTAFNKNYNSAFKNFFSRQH

D(1A) dopamine receptor = D(1A) dopamine receptor (Homo sapiens, UniProt P21728)
Chain of D(1A) dopamine receptor (P21728 whole entry): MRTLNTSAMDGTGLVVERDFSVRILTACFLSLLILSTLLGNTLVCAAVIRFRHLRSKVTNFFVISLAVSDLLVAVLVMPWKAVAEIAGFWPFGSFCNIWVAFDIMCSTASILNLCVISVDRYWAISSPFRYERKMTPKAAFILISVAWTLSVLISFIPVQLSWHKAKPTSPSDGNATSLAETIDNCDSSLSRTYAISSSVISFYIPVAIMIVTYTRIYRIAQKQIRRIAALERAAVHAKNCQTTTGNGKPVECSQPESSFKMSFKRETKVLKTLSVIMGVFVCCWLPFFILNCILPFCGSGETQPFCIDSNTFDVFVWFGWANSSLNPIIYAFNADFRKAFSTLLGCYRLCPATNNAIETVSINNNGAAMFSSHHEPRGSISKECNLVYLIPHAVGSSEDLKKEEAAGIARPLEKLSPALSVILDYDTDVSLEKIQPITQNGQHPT

Adenosine receptor A1 = target: T4, Adenosine receptor A1 (Homo sapiens, UniProt P30542)
T4 sequence (P30542 whole entry): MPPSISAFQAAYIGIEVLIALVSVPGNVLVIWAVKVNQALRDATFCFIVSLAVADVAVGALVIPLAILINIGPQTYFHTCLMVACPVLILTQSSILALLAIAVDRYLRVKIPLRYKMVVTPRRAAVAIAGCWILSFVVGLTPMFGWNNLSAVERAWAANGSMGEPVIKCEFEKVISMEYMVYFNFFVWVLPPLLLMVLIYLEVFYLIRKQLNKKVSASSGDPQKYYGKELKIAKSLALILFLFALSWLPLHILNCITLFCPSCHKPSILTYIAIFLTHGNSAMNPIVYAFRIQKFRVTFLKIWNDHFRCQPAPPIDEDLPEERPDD

[9] = target: Voltage-dependent L-type calcium channel subunit alpha-1C (Homo sapiens, UniProt Q13936); type: functional, cell-based
Chain of Voltage-dependent L-type calcium channel subunit alpha-1C (Q13936 whole entry): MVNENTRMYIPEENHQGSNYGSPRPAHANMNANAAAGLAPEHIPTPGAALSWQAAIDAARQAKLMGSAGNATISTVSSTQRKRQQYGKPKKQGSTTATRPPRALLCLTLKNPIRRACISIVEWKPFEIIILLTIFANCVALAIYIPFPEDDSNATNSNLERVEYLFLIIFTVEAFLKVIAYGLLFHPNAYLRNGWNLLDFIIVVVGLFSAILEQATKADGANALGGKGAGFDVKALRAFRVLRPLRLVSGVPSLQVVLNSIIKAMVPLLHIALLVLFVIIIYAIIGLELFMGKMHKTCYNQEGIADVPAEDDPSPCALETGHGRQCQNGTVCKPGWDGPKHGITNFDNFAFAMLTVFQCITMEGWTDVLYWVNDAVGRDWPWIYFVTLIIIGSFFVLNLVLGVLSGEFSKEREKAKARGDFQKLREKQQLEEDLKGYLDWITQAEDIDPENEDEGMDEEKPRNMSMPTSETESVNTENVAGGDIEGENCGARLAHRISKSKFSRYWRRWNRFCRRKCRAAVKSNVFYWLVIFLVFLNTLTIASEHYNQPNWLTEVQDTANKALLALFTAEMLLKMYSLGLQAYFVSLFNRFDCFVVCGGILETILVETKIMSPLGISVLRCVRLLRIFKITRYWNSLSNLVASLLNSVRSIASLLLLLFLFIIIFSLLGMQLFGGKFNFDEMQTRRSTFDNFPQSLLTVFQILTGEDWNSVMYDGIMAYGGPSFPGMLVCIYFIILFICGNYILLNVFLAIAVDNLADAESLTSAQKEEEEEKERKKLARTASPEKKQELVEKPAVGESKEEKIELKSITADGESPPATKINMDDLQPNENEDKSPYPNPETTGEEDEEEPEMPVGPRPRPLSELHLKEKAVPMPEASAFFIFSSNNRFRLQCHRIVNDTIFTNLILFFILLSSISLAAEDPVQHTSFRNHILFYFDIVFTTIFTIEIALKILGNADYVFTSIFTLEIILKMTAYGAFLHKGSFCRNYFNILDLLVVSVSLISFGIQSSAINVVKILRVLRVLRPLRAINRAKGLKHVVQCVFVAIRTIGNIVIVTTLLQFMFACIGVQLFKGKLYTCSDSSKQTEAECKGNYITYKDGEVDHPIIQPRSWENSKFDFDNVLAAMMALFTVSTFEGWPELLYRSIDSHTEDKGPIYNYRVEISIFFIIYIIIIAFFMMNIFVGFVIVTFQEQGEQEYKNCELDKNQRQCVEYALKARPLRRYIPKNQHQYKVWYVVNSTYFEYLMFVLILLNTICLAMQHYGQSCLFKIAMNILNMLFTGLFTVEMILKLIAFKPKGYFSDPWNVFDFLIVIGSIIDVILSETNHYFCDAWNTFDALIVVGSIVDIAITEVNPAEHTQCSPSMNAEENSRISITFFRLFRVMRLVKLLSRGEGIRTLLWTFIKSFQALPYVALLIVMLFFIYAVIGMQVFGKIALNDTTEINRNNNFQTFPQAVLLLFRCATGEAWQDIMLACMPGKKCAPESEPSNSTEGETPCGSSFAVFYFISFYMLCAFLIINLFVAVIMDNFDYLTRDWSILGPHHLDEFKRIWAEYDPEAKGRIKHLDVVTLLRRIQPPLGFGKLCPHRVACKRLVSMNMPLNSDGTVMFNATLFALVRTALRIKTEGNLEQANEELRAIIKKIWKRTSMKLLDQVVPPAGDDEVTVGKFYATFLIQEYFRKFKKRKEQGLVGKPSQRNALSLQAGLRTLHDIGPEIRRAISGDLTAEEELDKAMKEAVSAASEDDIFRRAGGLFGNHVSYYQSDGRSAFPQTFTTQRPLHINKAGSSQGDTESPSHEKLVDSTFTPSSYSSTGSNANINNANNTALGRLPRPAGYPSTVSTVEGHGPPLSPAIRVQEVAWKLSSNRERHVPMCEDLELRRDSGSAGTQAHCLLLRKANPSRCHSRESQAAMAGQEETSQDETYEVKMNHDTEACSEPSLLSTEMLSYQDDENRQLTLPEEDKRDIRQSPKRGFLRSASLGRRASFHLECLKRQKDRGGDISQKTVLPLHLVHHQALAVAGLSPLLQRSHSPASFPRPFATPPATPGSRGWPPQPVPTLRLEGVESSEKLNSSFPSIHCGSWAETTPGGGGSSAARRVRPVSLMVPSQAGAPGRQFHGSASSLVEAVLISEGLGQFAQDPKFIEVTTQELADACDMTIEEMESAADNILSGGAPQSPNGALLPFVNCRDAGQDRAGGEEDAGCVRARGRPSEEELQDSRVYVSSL

Histamine H1 receptor = Histamine H1 receptor (Homo sapiens, UniProt P35367); type: functional, cell-based
Chain of Histamine H1 receptor (P35367 whole entry): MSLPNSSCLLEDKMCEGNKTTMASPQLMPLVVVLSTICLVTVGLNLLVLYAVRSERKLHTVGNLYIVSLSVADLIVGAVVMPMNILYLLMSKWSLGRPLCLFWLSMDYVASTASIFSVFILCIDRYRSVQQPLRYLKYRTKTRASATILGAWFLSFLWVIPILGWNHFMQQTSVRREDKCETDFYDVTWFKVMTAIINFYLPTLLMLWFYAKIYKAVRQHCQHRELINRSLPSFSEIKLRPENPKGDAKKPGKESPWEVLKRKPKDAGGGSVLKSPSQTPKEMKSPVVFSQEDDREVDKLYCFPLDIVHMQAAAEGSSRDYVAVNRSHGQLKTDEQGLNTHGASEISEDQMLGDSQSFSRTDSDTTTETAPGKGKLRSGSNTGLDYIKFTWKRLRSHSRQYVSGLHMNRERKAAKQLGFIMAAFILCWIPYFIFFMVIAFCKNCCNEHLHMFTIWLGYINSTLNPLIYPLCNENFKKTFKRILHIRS

[10] = target: 5-hydroxytryptamine receptor 2A (Homo sapiens, UniProt P28223)
Chain of 5-hydroxytryptamine receptor 2A (P28223 whole entry): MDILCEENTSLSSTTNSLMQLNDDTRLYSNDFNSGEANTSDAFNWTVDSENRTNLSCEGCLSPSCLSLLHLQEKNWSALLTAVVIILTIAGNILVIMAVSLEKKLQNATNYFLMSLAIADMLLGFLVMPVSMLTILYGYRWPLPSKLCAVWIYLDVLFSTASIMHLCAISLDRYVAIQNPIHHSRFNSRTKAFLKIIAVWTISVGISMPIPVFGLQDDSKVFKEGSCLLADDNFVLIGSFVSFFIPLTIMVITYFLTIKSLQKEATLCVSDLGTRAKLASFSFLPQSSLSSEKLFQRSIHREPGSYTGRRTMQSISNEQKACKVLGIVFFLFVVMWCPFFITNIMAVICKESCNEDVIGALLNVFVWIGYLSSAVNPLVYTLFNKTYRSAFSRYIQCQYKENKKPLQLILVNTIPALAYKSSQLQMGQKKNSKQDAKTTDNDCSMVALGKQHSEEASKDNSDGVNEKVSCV

Estrogen receptor = target: T5, Estrogen receptor (Homo sapiens, UniProt P03372); type: functional
T5 sequence (P03372 whole entry): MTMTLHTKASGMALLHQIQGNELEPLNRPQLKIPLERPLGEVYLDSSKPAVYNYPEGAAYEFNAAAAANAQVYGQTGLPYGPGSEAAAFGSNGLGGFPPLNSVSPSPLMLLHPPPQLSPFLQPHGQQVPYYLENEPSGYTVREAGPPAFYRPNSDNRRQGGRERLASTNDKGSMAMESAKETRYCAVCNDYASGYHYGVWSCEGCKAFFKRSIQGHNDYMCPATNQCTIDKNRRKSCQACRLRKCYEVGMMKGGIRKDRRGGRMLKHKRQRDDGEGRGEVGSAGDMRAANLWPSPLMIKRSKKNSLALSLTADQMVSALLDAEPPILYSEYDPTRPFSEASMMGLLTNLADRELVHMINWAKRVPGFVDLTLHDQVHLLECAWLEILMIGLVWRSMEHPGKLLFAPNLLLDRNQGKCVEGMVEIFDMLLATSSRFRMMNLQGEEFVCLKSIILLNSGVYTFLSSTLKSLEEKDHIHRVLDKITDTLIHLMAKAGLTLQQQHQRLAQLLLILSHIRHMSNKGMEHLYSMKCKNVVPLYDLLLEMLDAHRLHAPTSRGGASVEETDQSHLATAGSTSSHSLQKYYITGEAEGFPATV
Also: assay procedure not described here.

`CC(C)C(=O)Nc1ccc([N+](=O)[O-])c(C(F)(F)F)c1` [FLUTAMIDE] was tested, and the AC50 [1] was > 30 µM, the AC50 [2] was > 30 µM and the AC50 (Thromboxane A2 receptor [3]) was > 10 µM. The AC50 (Thromboxane A2 receptor [4]) was 6 µM.

In the case of `NS(=O)(=O)c1cc2c(cc1Cl)NCNS2(=O)=O` [HYDROCHLOROTHIAZIDE], the AC50 [5] is reported as > 10 µM, the AC50 [6] is reported as > 10 µM and the AC50 [7] is reported as > 10 µM. For the same compound, the AC50 [8] was > 10 µM.

For `OC[C@@H](O)[C@@H](O)[C@H](O)[C@H](O)CO` [MANNITOL], the AC50 (D(1A) dopamine receptor) was > 30 µM and the AC50 (Adenosine receptor A1) was > 30 µM.

`Cc1cccc(C)c1OCC(C)N` (stereo not drawn) [MEXILETINE] was tested, and the AC50 [9] was > 50 µM.

`CCc1nn(CCCN2CCN(c3cccc(Cl)c3)CC2)c(=O)n1CCOc1ccccc1` [NEFAZODONE] was tested, and the AC50 [7] was > 10 µM.

`OCCN1CCN(CCCN2c3ccccc3C=Cc3ccccc32)CC1` [OPIPRAMOL] was tested, and the AC50 (Adenosine receptor A1) was > 30 µM.

`CCc1ccc(CCOc2ccc(CC3SC(=O)NC3=O)cc2)nc1` (stereo not drawn) [PIOGLITAZONE] was tested, and the AC50 [7] was > 10 µM.

`CC(C(=O)O)c1ccc(N2CC=CC2)c(Cl)c1` (stereo not drawn) [PIRPROFEN] was tested, and the AC50 (Histamine H1 receptor) was > 30 µM and the AC50 [10] was > 10 µM.

For `CC[C@H](C)C(=O)O[C@H]1C[C@H](O)C=C2C=C[C@H](C)[C@H](CC[C@@H](O)C[C@@H](O)CC(=O)O)[C@H]21` [PRAVASTATIN], the AC50 (Estrogen receptor) was > 30 µM.

With `NC(=O)c1cnccn1` [PYRAZINAMIDE] the AC50 [1] was > 30 µM, the AC50 [2] was > 30 µM and the AC50 (Thromboxane A2 receptor [3]) was > 30 µM. The AC50 (Thromboxane A2 receptor [4]) was > 30 µM.

With `O=C(NC[C@H]1CN(c2ccc(N3CCOCC3=O)cc2)C(=O)O1)c1ccc(Cl)s1` [RIVAROXABAN] the AC50 (Adenosine receptor A1) was > 30 µM.

For `Cc1cc2c(cc1CC(=O)c1sccc1S(=O)(=O)Nc1onc(C)c1Cl)OCO2` [SITAXENTAN], the AC50 (D(1A) dopamine receptor) was > 30 µM and the AC50 (Adenosine receptor A1) was > 30 µM.

With `CC(C)OC(=O)[C@H](C)N[P@](=O)(OC[C@H]1O[C@@H](n2ccc(=O)[nH]c2=O)[C@](C)(F)[C@@H]1O)Oc1ccccc1` [SOFOSBUVIR] the AC50 [9] was > 50 µM.

In the case of `CS(=O)(=O)c1ccc([C@@H](O)[C@@H](CO)NC(=O)C(Cl)Cl)cc1` [THIAMPHENICOL], the AC50 [9] is reported as > 50 µM.

With `CCCS(=O)(=O)Nc1ccc(F)c(C(=O)c2c[nH]c3ncc(-c4ccc(Cl)cc4)cc23)c1F` [VEMURAFENIB] the AC50 [9] was > 30 µM.

With `OCc1cc([C@@H](O)CNCCCCCCOCCOCc2c(Cl)cccc2Cl)ccc1O` [VILANTEROL] the AC50 (Estrogen receptor) was > 30 µM.

With `CCOC(=O)N[C@@H]1CC[C@@H]2[C@@H](C1)C[C@H]1C(=O)O[C@H](C)[C@H]1[C@H]2/C=C/c1ccc(-c2cccc(F)c2)cn1` [VORAPAXAR] the AC50 [9] was > 50 µM.

With `O=C(CCCCCCC(=O)Nc1ccccc1)NO` [VORINOSTAT] the AC50 [5] was > 10 µM, the AC50 (Histamine H1 receptor) was > 30 µM and the AC50 [7] was > 10 µM. For the same compound, the AC50 [10] was > 10 µM.
